What was measured:
RASF = experiment: PDGF-induced proliferation of cultured RASF (cell counting); type: cell-based, human; settings: 18 h, PDGF 10 ng/ml
Description: Data are shown as mean ± SEM. […] Cells were grown at standard conditions. […] Cell number was evaluated with a […] cell counter (Roche Innovatis, Reutlingen, Germany).

hOCT2 = biological target: T1, hOCT2 (Homo sapiens, UniProt O15244); experiment: Inhibition of ASP+ uptake in hOCT2-HEK293 cells (apparent affinity); type: cell-based; design: expressed in transfected cells; host or cells: HEK293; settings: hOCT2-HEK293, ASP+ 1 µM
T1 sequence (O15244 1-555): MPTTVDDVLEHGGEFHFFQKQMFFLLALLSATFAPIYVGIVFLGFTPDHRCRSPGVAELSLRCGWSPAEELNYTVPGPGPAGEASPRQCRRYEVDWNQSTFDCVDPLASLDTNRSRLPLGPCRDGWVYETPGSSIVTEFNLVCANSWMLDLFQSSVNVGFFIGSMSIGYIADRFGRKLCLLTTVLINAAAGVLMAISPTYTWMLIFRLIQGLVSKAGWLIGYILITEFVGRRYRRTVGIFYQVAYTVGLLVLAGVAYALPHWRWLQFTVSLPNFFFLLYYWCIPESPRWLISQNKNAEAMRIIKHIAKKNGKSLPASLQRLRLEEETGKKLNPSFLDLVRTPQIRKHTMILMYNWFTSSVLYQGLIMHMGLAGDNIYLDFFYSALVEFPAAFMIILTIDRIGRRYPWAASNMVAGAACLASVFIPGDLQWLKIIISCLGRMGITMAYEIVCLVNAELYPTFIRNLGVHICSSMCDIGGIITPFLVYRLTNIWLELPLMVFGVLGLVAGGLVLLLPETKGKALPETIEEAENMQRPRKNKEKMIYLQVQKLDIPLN

hOCTN1 = biological target: T2, hOCTN1 (Homo sapiens, UniProt Q9H015); experiment: Inhibition of ASP+ uptake in hOCTN1-HEK293 cells (apparent affinity); type: cell-based; design: expressed in transfected cells; host or cells: HEK293, expression induced with 1 mg/l doxycycline; settings: hOCTN1-HEK293, ASP+ 1 µM
T2 sequence (Q9H015 1-551): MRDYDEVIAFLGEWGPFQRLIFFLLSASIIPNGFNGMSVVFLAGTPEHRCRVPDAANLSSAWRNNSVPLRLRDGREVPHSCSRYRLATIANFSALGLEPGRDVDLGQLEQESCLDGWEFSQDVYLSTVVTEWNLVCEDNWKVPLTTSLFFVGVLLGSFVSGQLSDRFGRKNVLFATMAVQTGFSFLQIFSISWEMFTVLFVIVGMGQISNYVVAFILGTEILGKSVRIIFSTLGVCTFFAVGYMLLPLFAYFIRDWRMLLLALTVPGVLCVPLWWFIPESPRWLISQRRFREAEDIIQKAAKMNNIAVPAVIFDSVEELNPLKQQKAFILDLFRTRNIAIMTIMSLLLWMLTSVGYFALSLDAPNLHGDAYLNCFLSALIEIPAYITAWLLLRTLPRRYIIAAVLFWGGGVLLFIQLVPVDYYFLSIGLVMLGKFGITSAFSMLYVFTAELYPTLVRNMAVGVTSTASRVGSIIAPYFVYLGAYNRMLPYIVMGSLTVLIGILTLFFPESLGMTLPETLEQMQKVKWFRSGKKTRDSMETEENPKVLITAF

hMATE1 = biological target: T3, hMATE1 (Homo sapiens, UniProt Q96FL8); experiment: Saracatinib uptake in hMATE1-expressing HEK293 cells (HPLC-UV); settings: hMATE1-HEK293, 10 µM saracatinib, 10 min; not significantly different from WT
T3 sequence (Q96FL8 1-570): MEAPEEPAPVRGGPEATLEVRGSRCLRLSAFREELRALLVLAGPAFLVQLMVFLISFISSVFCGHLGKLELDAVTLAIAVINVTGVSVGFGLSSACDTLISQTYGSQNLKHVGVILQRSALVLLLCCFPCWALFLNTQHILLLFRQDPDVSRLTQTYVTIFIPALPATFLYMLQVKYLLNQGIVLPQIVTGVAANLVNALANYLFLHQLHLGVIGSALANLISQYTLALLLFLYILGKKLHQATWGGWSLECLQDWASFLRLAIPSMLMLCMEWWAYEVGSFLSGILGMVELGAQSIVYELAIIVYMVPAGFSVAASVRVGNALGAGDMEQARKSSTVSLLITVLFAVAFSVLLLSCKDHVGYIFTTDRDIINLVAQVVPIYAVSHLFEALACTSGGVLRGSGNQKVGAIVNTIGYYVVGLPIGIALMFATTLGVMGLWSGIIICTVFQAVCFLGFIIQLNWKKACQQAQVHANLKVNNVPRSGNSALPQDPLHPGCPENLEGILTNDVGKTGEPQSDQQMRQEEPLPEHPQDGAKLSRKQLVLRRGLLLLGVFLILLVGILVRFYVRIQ

hOCT1 [1] = biological target: T4, hOCT1 (Homo sapiens, UniProt O15245); experiment: Saracatinib uptake in hOCT1-overexpressing HEK293 cells (HPLC-UV); settings: hOCT1-HEK293, 10 µM saracatinib, 10 min, difference of accumulation at 4 °C and 37 °C
T4 sequence (O15245 1-554): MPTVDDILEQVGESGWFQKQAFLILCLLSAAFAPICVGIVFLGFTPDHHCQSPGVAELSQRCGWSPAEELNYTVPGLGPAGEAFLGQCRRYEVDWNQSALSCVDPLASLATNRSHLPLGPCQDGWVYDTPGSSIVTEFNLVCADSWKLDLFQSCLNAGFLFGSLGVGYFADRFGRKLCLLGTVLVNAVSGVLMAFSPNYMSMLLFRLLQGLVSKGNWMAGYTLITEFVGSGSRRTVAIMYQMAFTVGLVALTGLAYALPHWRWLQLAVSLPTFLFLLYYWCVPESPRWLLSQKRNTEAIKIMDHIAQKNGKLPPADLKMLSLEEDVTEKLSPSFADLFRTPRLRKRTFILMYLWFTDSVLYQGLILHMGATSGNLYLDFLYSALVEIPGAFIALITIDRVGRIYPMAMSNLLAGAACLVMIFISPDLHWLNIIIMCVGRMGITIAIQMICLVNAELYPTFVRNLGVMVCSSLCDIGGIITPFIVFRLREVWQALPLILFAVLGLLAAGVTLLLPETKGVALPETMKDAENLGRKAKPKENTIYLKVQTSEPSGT

hOCT1 [2] = biological target: T4, hOCT1; experiment: Inhibition of ASP+ uptake in hOCT1-HEK293 cells (apparent affinity); type: cell-based; design: expressed in transfected cells; host or cells: HEK293; settings: hOCT1-HEK293, ASP+ 1 µM

IC50 (hOCT2): 0.9 µM
IC50 (hOCTN1): 0.072 µM
saracatinib accumulation (specific uptake) (hMATE1): 2.3 ± 0.7 nmol/mg protein
saracatinib accumulation (specific uptake) (hOCT1 [1]): 8.8 ± 0.9 nmol/mg protein
IC50 (hOCT1 [2]): 57 µM
Compound: CN1CCN(CCOc2cc(OC3CCOCC3)c3c(Nc4c(Cl)ccc5c4OCO5)ncnc3c2)CC1 [saracatinib, N-(5-chloro-1,3-benzodioxol-4-yl)-7-[2-(4-methylpiperazin-1-yl)ethoxy]-5-(tetrahydro-2H-pyran-4-yloxy)quinazolin-4-amine]
inhibition of PDGF-induced cell proliferation (RASF; 0.1 µM saracatinib): Complete inhibition
inhibition of PDGF-induced cell proliferation (RASF; 0.001–1 µM saracatinib): potent and dose-dependent inhibition

Reference: paper PMC5430895 (Scientific Reports, 2017)
